Structures are written as SMILES.

Assay [1] deals with Phytophthora infestans. Kind of assay: whole plant or invertebrate. The following applies: Phytophthora infestans, in Solanum lycopersicum, read-out: control (disease severity) compared to the untreated check. The assay is classed as in vivo.
In assay [2] the test system is Phytophthora infestans. Description: microbe, parasite or virus in culture. It is filed as cell-based. The following applies: Phytophthora infestans, 168 h, read-out: control (radial growth) compared to the untreated check.
Another assay has as its system Plasmopara viticola. Kind of assay: Plasmopara viticola test in grape, preventive. The assay is classed as in vivo. The following applies: Plasmopara viticola, 50 ppm spray, grape seedlings inoculated one day after treatment, read-out: control (disease severity) compared to the untreated check. How it is done:
Example B: Plasmopara viticola Test in Grape
Compounds were dissolved in 2% DMSO/Acetone & then mixed with water to calibrated spray volume of 50 ml. This 50 ml spray solution was poured into the spray bottles for further applications.
To test the preventive activity of compounds, five week old healthy grape seedlings raised in the greenhouse were sprayed with active compound preparation at the stated application rates inside the spray cabinets using hallow-cone nozzles. One day after treatment, the plants were inoculated with inoculum suspension (Cold sterile water) containing 6×10^6 Plasmopara viticola inoculum. The inoculated plants were then kept in greenhouse chamber at 18-21° C. temperature and 95-100% relative humidity for disease expression. Compounds
A visual assessment of compound's performance was carried by rating the disease severity (0-100% scale) on treated plants on 3, 7, 10 and 15 days after application. Efficacy (% control) of the compounds was calculated by comparing the disease rating in the treatment with untreated control. The sprayed plants were also assessed for compound's phytotoxic effects by recording symptoms like necrosis, chlorosis and stunting.

With `CS(=O)(=O)Oc1cccc(Cl)c1C1CC(c2csc(C3CCN(C(=O)COc4ncc(Cl)cc4C(F)(F)F)CC3)n2)=NO1` (stereo not drawn) [Compound 32, 3-chloro-2-(3-(2-(1-(2-((5-chloro-3-(trifluoromethyl)pyridin-2-yl)oxy)acetyl)piperidin-4-yl)thiazol-4-yl)-4,5-dihydroisoxazol-5-yl)phenyl methanesulfonate], the pest or weed control at 50 ppm with Phytophthora infestans [1] and in the assay on Plasmopara viticola was 90% each time. The inhibition of growth at 30 ppm in the assay with Phytophthora infestans [2] was 70%.

As to `CS(=O)(=O)Oc1cccc(Cl)c1C1CC(c2csc(C3CCN(C(=O)COc4ncc(C(F)(F)F)cc4Br)CC3)n2)=NO1` (stereo not drawn) [Compound 52], the pest or weed control at 50 ppm with Phytophthora infestans [1] and in the assay on Plasmopara viticola was 90% each time. The inhibition of growth at 30 ppm in the assay with Phytophthora infestans [2] amounted to 70%.

Turning to `Cc1cccnc1OCC(=O)N1CCC(c2nc(C3=NOC(c4c(F)cccc4F)C3)cs2)CC1` (stereo not drawn) [Compound 77, 1-(4-(4-(5-(2,6-difluorophenyl)-4,5-dihydroisoxazol-3-yl)thiazol-2-yl)piperidin-1-yl)-2-((3-methylpyridin-2-yl)oxy)ethan-1-one], the pest or weed control at 50 ppm in the assay with Phytophthora infestans [1] and in the assay on Plasmopara viticola was 90% each time. The inhibition of growth at 30 ppm in the assay on Phytophthora infestans [2] was determined as 70%.

Regarding `CS(=O)(=O)Oc1cccc(Cl)c1C1CC(c2csc(C3CCN(C(=O)COc4ncc(Br)cc4C(F)(F)F)CC3)n2)=NO1` (stereo not drawn) [Compound 36], the pest or weed control at 50 ppm with Phytophthora infestans [1] and in the assay on Plasmopara viticola was 90% each time. For the same compound, the inhibition of growth at 30 ppm with Phytophthora infestans [2] worked out at 70%.

Take `Cn1nc(OCC(=O)N2CCC(c3nc(C4=NOC(c5c(Cl)cccc5Cl)C4)cs3)CC2)cc1C(F)(F)F` (stereo not drawn) [Compound 15, 1-(4-(4-(5-(2,6-dichlorophenyl)-4,5-dihydroisoxazol-3-yl)thiazol-2-yl)piperidin-1-yl)-2-((1-methyl-5-(trifluoromethyl)-1H-pyrazol-3-yl)oxy)ethan-1-one]: the pest or weed control at 50 ppm in the assay on Phytophthora infestans [1] and in the assay on Plasmopara viticola was 90% throughout. Moreover, in the assay with Phytophthora infestans [2], the inhibition of growth at 30 ppm is 70%.

Regarding `O=C(CSc1ncccc1C(F)(F)F)N1CCC(c2nc(C3=NOC(c4c(F)cccc4F)C3)cs2)CC1` (stereo not drawn) [Compound 62, 1-(4-(4-(5-(2,6-difluorophenyl)-4,5-dihydroisoxazol-3-yl)thiazol-2-yl)piperidin-1-yl)-2-((3-(trifluoromethyl)pyridin-2-yl)thio)ethan-1-one], the pest or weed control at 50 ppm in the assay on Phytophthora infestans [1] and in the assay on Plasmopara viticola was 90% throughout. For the same compound, the inhibition of growth at 30 ppm with Phytophthora infestans [2] stood at 70%.

For the compound `O=C(COc1ncc(Cl)cc1C(F)(F)F)N1CCC(c2nc(C3=NOC(c4c(Cl)cccc4Cl)C3)cs2)CC1` (stereo not drawn) [Compound 31, 2-((5-chloro-3-(trifluoromethyl)pyridin-2-yl)oxy)-1-(4-(4-(5-(2,6-dichlorophenyl)-4,5-dihydroisoxazol-3-yl)thiazol-2-yl)piperidin-1-yl)ethan-1-one], the pest or weed control at 50 ppm with Phytophthora infestans [1] and with Plasmopara viticola was 90% in each case. Moreover, the inhibition of growth at 30 ppm with Phytophthora infestans [2] worked out at 70%.

For the compound `O=C(COc1ncccc1C(F)(F)F)N1CCC(c2nc(C3=NOC(c4c(F)cccc4F)C3)cs2)CC1` (stereo not drawn) [Compound 29, 1-(4-(4-(5-(2,6-difluorophenyl)-4,5-dihydroisoxazol-3-yl)thiazol-2-yl)piperidin-1-yl)-2-((3-(trifluoromethyl)pyridin-2-yl)oxy) ethan-1-one], the pest or weed control at 50 ppm in the assay with Phytophthora infestans [1] and with Plasmopara viticola was 90% throughout. Moreover, in the assay with Phytophthora infestans [2], the inhibition of growth at 30 ppm stood at 70%.

In the case of `Cc1ccc(C(F)(F)F)c(OCC(=O)N2CCC(c3nc(C4=NOC(c5c(Cl)cccc5OS(C)(=O)=O)C4)cs3)CC2)n1` (stereo not drawn) [Compound 42, 3-chloro-2-(3-(2-(1-(2-((6-methyl-3-(trifluoromethyl)pyridin-2-yl)oxy)acetyl)piperidin-4-yl)thiazol-4-yl)-4,5-dihydroisoxazol-5-yl)phenyl methanesulfonate], the pest or weed control at 50 ppm with Phytophthora infestans [1] and in the assay on Plasmopara viticola was 90% throughout. The inhibition of growth at 30 ppm in the assay on Phytophthora infestans [2] stood at 70%.

The record behind these values is patent US20200281202A1 (priority 2017, published 2020).
